Experiments:
[1] = test system: PLC/S; assay: Colony formation (proliferation) inhibition, sensitive human hepatoma cells (A-I Part 1); format: cell-based; details: Homo sapiens, 216 h; PLC/S; 9 days; Table 1; read-out: IC50
Protocol: (§1) Sensitive cell line V79/S and ADM-resistant cell line V79/ADM of the Chinese hamster were used, and sensitive cell line PLC/S and cholchicin-resistant cell line PLC/Col, as human hepatoma cells.
(§2) The sensitive cell lines (400 cells) or the resistant cell lines (600 cells) were each incubated for 24 hours in 10 ml of Eagle's MEM medium containing 10% bovine serum. Each of the drugs indicated in Table 1 below was dissolved in ethanol, and 50 microliters of the resulting solution was added to the medium. The incubation was further carried out for 9 days. The concentration of the drug which inhibits 50% of the colony formation (proliferation) of the tumor cells was calculated.
(§3) V79/S and V79/ADM were tested by using all of the drugs described above, but PLC/S and PLC/Col were tested by using only the malate of formula (I), adriamycin and peplomycin.
(§4) The concentrations (micrograms/ml) required to inhibit 50% of the proliferation of the tumor cells, expressed by IC50, are shown in Table 1.

[2] = Acute toxicity test in mice, oral; format: in vivo, mouse; details: oral, 2,000 mg/kg
Protocol: Using mice, the malate of formula (I) obtained as above was tested for toxicity. […] Toxicity was neither noted.

[3] = test system: PLC/S; assay: Anti-cancer activity potentiating action, colony formation, PLC/S parent cells (A-III); format: cell-based, human; details: Homo sapiens; PLC/S; alone; Table 7; read-out: IC50, anti-cancer agent alone
Protocol: (§5) The anti-cancer activity potentiating action of the malate of formula (I) was examined using Chinese hamster cells (sensitive cell line V79/S and ADM-resistant cell line V79/ADM), human hepatoma cells (sensitive cell line PLC/S and colchicin-resistant cell line PLC/Col) and mouse leukemia cells (sensitive cell line L5178Y/S) and aclarubicin-resistant cell line L5178Y/ACR).
(§6) Of these tumor cells, the sensitive cells (400 cells) and the resistant cells (600 cells) were each incubated in 10 ml of Eagle's MEM medium containing 10% bovine serum for 24 hours, and then each of the test drugs indicated in Table 6 was added. Thereafter, the incubation was carried out for 9 days. The concentration (IC50 : micrograms/ml) of the test drug required to inhibit 50% of the colony formation (proliferation) of the tumor cells was calculated.
(§7) As anti-cancer agents, adriamycin (ADM) and peplomycin (PEP) were used in combination with the malate of formula (I) (5 micrograms/ml).

[4] = test system: PLC/Col; assay: Anti-cancer activity potentiating action, colony formation, PLC/Col resistant cells (A-III); format: cell-based, human; details: Homo sapiens; PLC/Col; alone; Table 7; read-out: IC50, anti-cancer agent alone
Protocol: as §5, §6, §7

[5] = test system: V79/ADM; assay: Anti-cancer activity potentiating action, colony formation, V79/ADM resistant cells (A-III); format: cell-based, Chinese hamster; details: Cricetulus griseus; V79/ADM; alone; Table 6; read-out: IC50, anti-cancer agent alone
Protocol: as §5, §6
(§8) (A) Chinese hamster V79 cells
(§9) As anti-cancer agents, there were used adriamycin (ADM), aclarubicin (ACR), actinomycin D (ACD), 5-fluorouracil (5-FU), cytarabin (Ara-C), cisplatin (CDDP), methotrexate (MTX), mitomycin C (MMC), nimustine (ACNU), mitoxantrone, etoposide ([…]), vincristine (VCR), bleomycin (BLM) and peplomycin (PEP). For the sensitive cells, the anti-cancer agents were used in combination with 10 micrograms/ml of the malate of formula (I), and for the resistant cells, the anti-cancer agents were used in combination with the malate of formula (I) 3 micrograms/ml, 5 micrograms/ml, and 10 micrograms/ ml.

[6] = test system: clinically isolated human cancer cells (lung adenocarcinoma, lung squamous cell carcinoma, osteosarcoma, ovarian carcinoma); assay: Anti-tumor activity on clinically isolated human cancer cells, morphological changes (A-I Part 2); format: cell-based; details: 3 or 30 μg/ml (3 μg/ml for 3 examples, 30 μg/ml for 5)
Protocol: Lung adenocarcinoma, lung squamous cell carcinoma, osteosarcoma and ovarian carcinoma were selected as clinically isolated human cancer cells, and the anti-tumor activities of various drugs were examined. Specifically, various tumor tissues were individually cut to thin pieces by a razor, and by washing in saline by using a 1 mm mesh, the connective tissues were removed. The resulting solution was centrifuged at 1000 rpm for 1 minute to remove necrotizing substances. Washing with saline gave tumor cells.
They were incubated at 37° for 4 to 8 hours. Thereafter, pumping was carried out to disperse the tissue pieces. Then, centrifugation at 1000 rpm for 5 minutes, cell coating and Giemsa staining were performed. The anti-tumor activity of each drug was examined on the basis of observation of the morphological changes of the tumor cells under a microscope.
The experiment was conducted on two examples of each tumor cells (total 8 examples).

[7] = test system: V79/ADM; assay: Colony formation (proliferation) inhibition, ADM-resistant Chinese hamster cells (A-I Part 1); format: cell-based; details: Cricetulus griseus, 216 h; V79/ADM; 9 days; Table 1; read-out: IC50
Protocol: as §1, §2, §3, §4

[8] = test system: Meth-A; assay: Tumor proliferation inhibiting activity, Meth-A (A-IV); format: in vivo, BALB/c rats; details: for Number of surviving animals: 16 days later; for T/C (tumor weight) / Tumor weight mean ± S.D.: day 16
Protocol: Female BALB/c rats (7 weeks old), 8 per group, were used. Tumor cells (Meth-A) induced by methyl cholanthrene were transplanted intraperitoneally to the rats, and then the malate of formula (I) was administered intraperitoneally to the rats. The proliferation inhibiting activity of the malate was examined by comparing the weight of the tumor cells with that of the tumor cells in the non-treated control group.
The dose of the malate of formula (I) was 1.25, 2.5, 5.0, and 10.0 mg/kg/day. Mitomycin C (MMC) was administered as another anti-cancer agent. The weight of the tumor cells was measured, and the proliferation inhibiting activity was determined.
The weight (g) of the tumor with respect to that of the tumor in the control group (T/C, %) after 16 days from the transplantation of the tumor cells, and the number of surviving rats after 16 days are shown in Table 8.

[9] = test system: B16 melanoma cells; assay: Life prolongation of BDF1 mice with B16 melanoma (A-II Part 1); format: in vivo, mouse (male BDF1); details: 5 mg/kg i.p., three times every 4 days
Protocol: Three to eight male BDF1 mice having a body weight of 20±3 g were used, and B16 melanoma cells were selected as tumor cells. The melanoma cells were homogenized, and the homogenate was transplanted subcutaneously to the mice in an amount of 0.5 ml/mouse. After 7 days, the malate of formula (I) in accordance with this invention and an anti-cancer agent, neocartinostatin (NCS), were intraperitoneally administered either singly or in combination three times every 4 days in a dose of 5 mg/kg and 0.45 mg/kg for each time. The life prolonging rate of the mice was determined by the treated group/non-treated control group (T/C %).

[10] = test system: V79/S; assay: Anti-cancer activity potentiating action, colony formation, V79/S parent cells (A-III); format: cell-based, Chinese hamster; details: Cricetulus griseus; V79/S; alone; Table 6; read-out: IC50, anti-cancer agent alone
Protocol: as §5, §6, §8, §9

[11] = test system: PLC/Col; assay: Colony formation (proliferation) inhibition, colchicin-resistant human hepatoma cells (A-I Part 1); format: cell-based; details: Homo sapiens, 216 h; PLC/Col; 9 days; Table 1; read-out: IC50
Protocol: as §1, §2, §3, §4

[12] = test system: V79/S; assay: Colony formation (proliferation) inhibition, sensitive Chinese hamster cells (A-I Part 1); format: cell-based; details: Cricetulus griseus, 216 h; V79/S; 9 days; Table 1; read-out: IC50
Protocol: as §1, §2, §3, §4

[13] = Particle charge / formation of lipid emulsion; format: physicochemical
From the text: To secure fine particles of 1 micron or below in size which can actually be administered as a lipid emulsion, the particles should have a charge within the range of +20 mV to +50 mV.

[14] = 1.25 mg/kg/day i.p., days 1, 3, 5
[15] = 2.5 mg/kg/day i.p., days 1, 3, 5

SMILES: COc1ccc(CNCCN(CC=C(C)CCC=C(C)CCC=C(C)CCC=C(C)CCC=C(C)CCC=C(C)CCC=C(C)CCC=C(C)CCC=C(C)C)Cc2ccc(OC)c(OC)c2)cc1OC [Compound (I), N-solanesyl-N,N'-bis(3,4-dimethoxybenzyl)ethylenediamine malate]
- IC50 [1]: 6.8 µg/mL
- Acute toxicity, abnormality in mice [2]: no abnormality was found
- IC50 [3]: 6.8 µg/mL
- IC50 [4]: 1.7 µg/mL
- IC50 [5]: 3 µg/mL
- Efficacy ratio (rated significant by Fisher's test) [6]: 5/8
- IC50 [7]: 3 µg/mL
- Number of surviving animals [8, 14]: 8/8
- T/C (tumor weight) [8, 14]: 75%
- Tumor weight mean ± S.D. [8, 14]: 1.255 ± 0.533 g
- Number of surviving animals [8, 15]: 8/8
- T/C (tumor weight) [8, 15]: 79%
- Tumor weight mean ± S.D. [8, 15]: 1.327 ± 0.350 g
- Number of surviving animals ([8]; 5.0 mg/kg/day i.p., day 1): 8/8
- T/C (tumor weight) ([8]; 5.0 mg/kg/day i.p., day 1): 83%
- Tumor weight mean ± S.D. ([8]; 5.0 mg/kg/day i.p., day 1): 1.389 ± 0.644 g
- Number of surviving animals ([8]; 10.0 mg/kg/day i.p., day 1): 8/8
- T/C (tumor weight) ([8]; 10.0 mg/kg/day i.p., day 1): 65%
- Tumor weight mean ± S.D. ([8]; 10.0 mg/kg/day i.p., day 1): 1.091 ± 0.659 g
- T/C (life prolonging rate at M.S.T.) [9]: 165%
- IC50 [10]: 11.5 µg/mL
- IC50 [11]: 1.7 µg/mL
- IC50 [12]: 11.5 µg/mL

SMILES: COc1ccc(CNCCN(CC=C(C)CCC=C(C)CCC=C(C)CCC=C(C)CCC=C(C)CCC=C(C)CCC=C(C)CCC=C(C)CCC=C(C)C)Cc2ccc(OC)c(OC)c2)cc1OC [compound (II), N-solanesyl-N,N'-bis(3,4-dimethoxybenzyl)ethylenediamine]
- Formation of a lipid emulsion [13]: cannot be formed into a lipid emulsion
- Particle charge within +20 mV to +50 mV / aggregation ([13]; lipid emulsion particles): particle aggregation occurs
